36 molecules from patent US20200165194A1, “ADDITIVE COMPOSITION FOR CULTURE MEDIUM, ADDITIVE COMPOUND FOR CULTURE MEDIUM, AND METHOD FOR CULTURE OF CELLS OR TISSUE USING SAME” (NISSAN CHEMICAL CORPORATION, priority 2017, published 2020) can be followed below.

Series [1] concerns SKOV3 cells (human ovarian cancer-derived cell line). Kind of series: Cell proliferation activity in three-dimensional medium FCeM, ATP assay (Experimental Example 1). It counts as cell-based. The conditions noted are these: SKOV3, 3D medium FCeM, 4 days, DMSO control = 100%, average of two tests; for proliferation rate (%): compound 5 μM. On the procedure: A cell proliferation promoting effect when the compound to be used in the present invention was added to a three-dimensional medium was studied. Specifically, precultured (adhesion cultured) SKOV3 cells (human ovarian cancer-derived cell line) were recovered and suspended in a three-dimensional cell culture medium (“FCeM (registered trade mark)” (Nissan chemical corporation)) to prepare a cell suspension. […] The cell suspension seeded in the plate was stood overnight at 37° C., 5% CO2. Then, a DMSO diluted solution (4.44 μL) of the compound to be used in the present invention was added at a final concentration of 5 μM (or two steps of […] and 10 μM) (no stirring after addition). After addition of each compound, the mixtures were stood for 4 days at 37° C., 5% CO2. […] The luminescence intensity (RLU value) was measured by FlexStation3 (manufactured by Molecular Devices), and cell proliferation was evaluated.
The proliferation rate was calculated based on the control (cells added with DMSO without containing the compound to be used in the present invention) as the standard (100%). The values shown in the tables are average values of the results of two tests.

Series [2] has as its system human ovarian cancer cell line SKOV3. Kind of series: Action on SKOV3 cell-2: 3D (deacylated gellan gum) and 2D culture, EGF medium, ATP assay (Experimental Example 3). Particulars: for relative value of RLU (number of viable cells) / viability at 1 µM / viability at 5 µM / viability at 10 µM / viability at 20 µM: 4 days, compound non-addition = 100%; for viability at 1 µM / viability at 5 µM / viability at 10 µM / viability at 20 µM: Homo sapiens, SK-OV-3, 96 h.
Protocol: According to the method of patent document 1 (WO 2014/017513), a composition of McCoy's 5a medium (manufactured by Sigma-Aldrich) containing 0.015% (w/v) deacylated gellan gum (KELCOGEL CG-LA, manufactured by Sansho Co., Ltd.) and 15% (v/v) FBS, 30 ng/mL human EGF (manufactured by PEPROTECH) was prepared using FCeM-series Preparation Kit (manufactured by Wako Pure Chemical Industries, Ltd.). In a single layer culture, a non-addition medium composition not containing deacylated gellan gum was prepared. Then, human ovarian cancer cell line SKOV3 (manufactured by DS PHARMA BIO MEDICAL) was suspended in the above-mentioned medium composition added with deacylated gellan gum, and dispensed into the wells of a 384 well flat bottom Ultr-low Attachment surface microplate (manufactured by Corning Incorporated, #3827) at 1000 cells/36 μL/well (three-dimensional culture (3D)). In a single layer culture (2D), human ovarian cancer cell line SKOV3 was suspended in the above-mentioned medium composition not containing deacylated gellan gum, and dispensed into the wells of a 384 well flat bottom microplate (manufactured by Corning Incorporated, #3712) at 400 cells/36 μL per well. After dispensing, the compound to be used in the present invention dissolved in dimethyl sulfoxide (DMSO) was added by 4 μL each at a final concentration of 0, 1, 5, 10, 20 μM, and continuously cultured for 4 days. Each plate was cultured in a standing state in a CO2 incubator (37° C., 5% CO2) for 4 days. An ATP reagent (40 μL) (CellTiter-Glo (registered trade mark) Luminescent Cell Viability Assay, manufactured by Promega) was added to the culture medium on day 4, and the mixture was stirred by a plateshaker (manufactured by AS ONE Corporation, Micro plate mixer NS-P) at room temperature for 15 min. The luminescence intensity (RLU value) was measured by EnSpire (manufactured by Perkin Elmer) and the luminescence value of the medium alone was subtracted to measure the number of viable cells.

[3] abbreviates: single layer culture (2D) of SKOV3 cells.
Where [4] appears, read: three-dimensional culture (3D) of SKOV3 cells.

Where two headings read alike, the source gives them in different places.

In the case of `CCC(=NNC(=O)CNc1ccc(F)cc1)c1ccc(O)c(C)c1O` [k-1:H-5], in series [1], the “proliferation rate (%)” value is given as 154.19%. The same measure, in the same setting: for `Cc1c(O)ccc(C(CC(C)C)=NNC(=O)CNc2cccc3ccccc23)c1O` [k-5:H-6] the value was 115.2%. `CCCCCCCC/N=C(\CC)c1ccc(O)c(C)c1O` [k-1:A-3]: in series [1], the “proliferation rate (%) (5 μM)” value came to 118.1% and the “proliferation rate (%) (10 μM)” value is recorded as 112.6%.

Turning to `CCC(=NNC(=O)CNc1cccc2ccccc12)c1ccc(O)c(C)c1O` [k-1:H-6], in series [1], the “proliferation rate (%)” value is given as 125.68%. For `CCC(=NNC(=O)CNc1ccc(C)cc1)c1c(O)cc(O)c(C)c1O` [k-3:H-4], in series [1], the “proliferation rate (%)” value came to 135.5%.

On to `CCOc1ccc(NCC(=O)NN=C(C)c2ccc(O)c(C)c2O)cc1` [k-2:H-9], for which the “proliferation rate (%)” value in series [1] is on record as 131.36%. The same measure, in the same setting: to `CCC(Nc1ccccc1)C(=O)NN=C(CC(C)C)c1ccc(O)c(C)c1O` (stereo not shown) [k-5:H-7] belongs 130.63%; to `CCC(=NNC(=O)CNc1ccccc1C)c1ccc(O)c(C)c1O` [k-1:H-2], 147.27%; to `CC(=NNC(=O)CNc1ccccc1)c1ccc(O)c(C)c1O` [k-2:H-1], 184.61%. Turning to `CCOC(=O)C/N=C(\CC)c1ccc(O)c(C)c1O` [k-1:A-1], in series [1], the “proliferation rate (%) (5 μM)” value was 119.1% and the “proliferation rate (%) (10 μM)” value is given as 119.4%. `CCOc1ccc(NCC(=O)NN=C(CC)c2c(O)cc(O)c(C)c2O)cc1` [k-3:H-9]: the “proliferation rate (%)” value in series [1] came out at 129.93%. On to `CC/C(=N\C(=O)Nc1ccccc1)c1ccc(O)c(C)c1O` [k-1:A-5], for which, in series [1], the “proliferation rate (%) (5 μM)” value turned out to be 113% and the “proliferation rate (%) (10 μM)” value worked out at 124.3%. For `CCC(=NNC(=O)CNc1ccccc1)c1c(O)cc(O)c(C)c1O` [k-3:H-1], the “proliferation rate (%)” value in series [1] turned out to be 133.76%. For `Cc1ccc(NCC(=O)NN=C(CC(C)C)c2ccc(O)c(C)c2O)cc1` [k-5:H-4], in series [1], the “proliferation rate (%)” value stood at 114.76%. On to `CC(=NNC(=O)CNc1ccc(C)cc1)c1ccc(O)c(C)c1O` [k-2:H-4], for which the “proliferation rate (%)” value in series [1] is reported as 128.2%. Same read-out and setting: to `CCC(=NNC(=O)CNc1cccc(C)c1)c1ccc(O)c(C)c1O` [k-1:H-3] belongs 168.98%; to `CCC(Nc1ccccc1)C(=O)NN=C(C)c1ccc(O)c(C)c1O` (stereo not shown) [k-2:H-7], 201.93%.

`Cc1ccccc1NCC(=O)NN=C(CC(C)C)c1ccc(O)c(C)c1O` [k-5:H-2]: the “proliferation rate (%)” value in series [1] is reported as 133.96%.

On to `Cc1c(O)ccc(C(CC(C)C)=NNC(=O)CNc2ccccc2)c1O` [k-5:H-1], for which, in series [1], the “proliferation rate (%)” value was found to be 148.88%. On the same count and under the same terms, to `CCC(=NNC(=O)C(CC)Nc1ccccc1)c1c(O)cc(O)c(C)c1O` (stereo not shown) [k-3:H-7] belongs 126.34%; to `CC(=NNC(=O)CNc1ccccc1C)c1ccc(O)c(C)c1O` [k-2:H-2], 131.13%. Consider `CCOc1ccc(NCC(=O)NN=C(CC)c2ccc(O)c(C)c2O)cc1` [k-1:H-9], for which the “proliferation rate (%)” value in series [1] was 95.96%. As for `CC/C(=N\CC(=O)OCc1ccccc1)c1ccc(O)c(C)c1O` [k-1:A-2], in series [1], the “proliferation rate (%) (5 μM)” value stood at 118.8% and the “proliferation rate (%) (10 μM)” value came to 129.4%. With `Cc1cccc(NCC(=O)NN=C(CC(C)C)c2ccc(O)c(C)c2O)c1` [k-5:H-3], the “proliferation rate (%)” value in series [1] is 146.44%.

As to `CCC(=NNC(=O)CNc1cccc2ccccc12)c1c(O)cc(O)c(C)c1O` [k-3:H-6], the “proliferation rate (%)” value in series [1] was found to be 134.6%. With `CCC(=NNC(=O)CNc1ccc(O)cc1)c1ccc(O)c(C)c1O` [k-1:D-2], the “relative value of RLU (number of viable cells)” value stood at 101% in series [2] (2D single layer culture, 1 μM); 94% in series [2] (2D single layer culture, 5 μM); 82% in series [2] (2D single layer culture, 10 μM); 59% in series [2] (2D single layer culture, 20 μM); 116% in series [2] (3D culture (deacylated gellan gum), 1 μM); 129% in series [2] (3D culture (deacylated gellan gum), 5 μM). Besides, the “relative value of RLU (number of viable cells)” value in series [2] (3D culture (deacylated gellan gum), 10 μM) was determined as 143%; in series [2] (3D culture (deacylated gellan gum), 20 μM), 126%. For the same molecule, the results for the “cell proliferation promoting effect (in words)” value in series [2] (setting [3]) and in series [2] (setting [4]) were “a favorable cell proliferation promoting effect was not observed” and “exhibited cell proliferation promoting effect at a wide concentration range”, respectively. Turning to `CC(=NNC(=O)CNc1ccc(F)cc1)c1ccc(O)c(C)c1O` [k-2:H-5], in series [1], the “proliferation rate (%)” value amounted to 158.56%.

For `CCC(=NNC(=O)CNc1cccc(C)c1)c1c(O)cc(O)c(C)c1O` [k-3:H-3], the “proliferation rate (%)” value in series [1] is recorded as 134.65%.

Take `CC(=NNC(=O)CNc1cccc2ccccc12)c1ccc(O)c(C)c1O` [k-2:H-6]: the “proliferation rate (%)” value in series [1] was found to be 116.79%. On the same count and under the same terms, for `CCOc1ccc(NCC(=O)NN=C(CC(C)C)c2ccc(O)c(C)c2O)cc1` [k-5:H-9] the value was 38.38%.

In the case of `CC/C(=N\NC(=O)OCc1cccc(O)c1)c1ccc(O)c(C)c1O` [k-1:N-1], the viability at 1 µM in series [2] (read-out: relative value of RLU (number of viable cells), 2D single layer culture, 1 μM) was 101%; in series [2] (read-out: relative value of RLU (number of viable cells), 3D culture (deacylated gellan gum), 1 μM) it was 101%. Moreover, the viability at 5 µM was found to be 94% in series [2] (read-out: relative value of RLU (number of viable cells), 2D single layer culture, 5 μM) and 134% in series [2] (read-out: relative value of RLU (number of viable cells), 3D culture (deacylated gellan gum), 5 μM). The viability at 10 µM in series [2] (read-out: relative value of RLU (number of viable cells), 2D single layer culture, 10 μM) was determined as 89%; in series [2] (read-out: relative value of RLU (number of viable cells), 3D culture (deacylated gellan gum), 10 μM), 169%. The viability at 20 µM was found to be 84% in series [2] (read-out: relative value of RLU (number of viable cells), 2D single layer culture, 20 μM) and 186% in series [2] (read-out: relative value of RLU (number of viable cells), 3D culture (deacylated gellan gum), 20 μM). Further, the “cell proliferation promoting effect (in words)” value in series [2] (setting [3]) is “a favorable cell proliferation promoting effect was not observed”; in series [2] (setting [4]), “exhibited cell proliferation promoting effect at a wide concentration range”.

Take `CCC(=NNC(=O)CNc1ccc(C)cc1)c1ccc(O)c(C)c1O` [k-1:H-4]: in series [1], the “proliferation rate (%)” value is recorded as 105.07%. For `CCC(=NNC(=O)CNc1ccccc1C)c1c(O)cc(O)c(C)c1O` [k-3:H-2], the “proliferation rate (%)” value in series [1] worked out at 117.84%. On the same count and under the same terms, to `CC(=NNC(=O)CNc1cccc(C)c1)c1ccc(O)c(C)c1O` [k-2:H-3] belongs 139.33%; to `CCC(=NNC(=O)CNc1ccc(F)cc1)c1c(O)cc(O)c(C)c1O` [k-3:H-5], 141.82%; to `Cc1c(O)ccc(C(CC(C)C)=NNC(=O)CNc2ccc(F)cc2)c1O` [k-5:H-5], 145.4%.
